One data set has as its system human endometrium. Nature of the data set: Oxidation and sulfurylation of tritiated E2 by human endometrial curettings. It is filed as in vitro ADME. Particulars: 0.003 µM. The protocol: (§1) Radioisotopes. [6,7-^3 H]E2 and [2,4,6,7-^3 H]E2 were obtained from New England Nuclear Corp., Boston, Mass., and purified on ITLC-SA (Gelman Instrument Co.) with CHCl3 :CH3 OH (97:3) as the developing solvent. Na2^35 SO4 was obtained from New England Nuclear Corp. and used directly from the bottle.
(§2) Human endometria. Endometrial specimens (60-1500 mg) were gathered from the operating room at the time of surgery and placed in 0.9% saline solution on ice. Most patients (22) were young women undergoing tubal ligations for the purpose of sterilization, two patients were having IUD's removed and eight patients (hysterectomies and laparoscopies) had normal endometria upon histological examination. All had had at least one pregnancy, had no endocrine problems, were cycling normally and were not taking any drugs, except for two patients on Librium® and two on Aldoril®. Ages ranged from 23 to 48 years, the average being 31±5 years.
(§3) Metabolism. Amounts varying from 55 to 400 mg of endometrium were incubated in 2.5 ml of modified bicarbonate buffer with 10 μl of [6,7-^3 H]E2 (3×10^-9 M) and 100 μl of Na2^35 SO4 (1×10^-4 M). The remainder of the procedure was the same as described for gilt uterus in Example 2

Experiment in data set [1]: as above
Particulars: human, endometrium, Table IV, 2 h, 3×10^-9 M E2. It is filed as in vitro ADME. The protocol: as §1, §2, §3

The target in data set [2] is T1, Bovine Adrenal Estrogen Sulfotransferase (Bos taurus, UniProt P19217).
T1 construct: The enzyme was isolated from the bovine adrenals; from tissue; host or cells: bovine adrenals; purified by ammonium sulfate fractionation and chromatography on DEAE-cellulose or DEAE-Sephadex A-50
T1 sequence (P19217 1-295): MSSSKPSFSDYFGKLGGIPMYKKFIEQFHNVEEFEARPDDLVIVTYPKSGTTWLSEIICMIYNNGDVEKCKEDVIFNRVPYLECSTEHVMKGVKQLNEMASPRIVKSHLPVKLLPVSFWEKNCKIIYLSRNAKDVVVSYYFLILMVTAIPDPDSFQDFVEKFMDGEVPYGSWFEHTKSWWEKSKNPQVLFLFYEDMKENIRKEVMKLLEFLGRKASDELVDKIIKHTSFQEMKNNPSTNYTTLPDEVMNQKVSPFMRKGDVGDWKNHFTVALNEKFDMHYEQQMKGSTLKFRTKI
Put plainly: Inhibition of bovine adrenal estrogen sulfotransferase (estrone sulfurylation). It is filed as biochemical. The protocol: Materials are evaluated for activity as estrogen sulfotransferase inhibitors by the method of Rozhin et al, Journal of Biological Chemistry, 252:7214-7220 (October 25, 1977), herein incorporated by reference.
Isolation of Estrogen Sulfotransferase (EC 2.8.2.4). The enzyme was isolated from the bovine adrenals and purified by ammonium sulfate fractionation and column chromatography on DEAE-cellulose or DEAE-SephadexA-50 [Rozhin et al (1974)].
Standard Enzyme Assay. The incubation mixtures contained the following in a total volume of 0.2 ml: 0.4 mM P-Ado-PS; 2 to 23 μM estrone (3-hydroxy-1,3,5(10)-estratriene-17-one), 5×10^5 dpm of [6,7-^3 H]estrone; 5 mM magnesium acetate; 0.19 M Tris/HCl buffer (pH 8.1 at 37°); 5 ug of the enzyme; and 25 μM dithiothreitol. After a 10-min incubation (in the presence of a constant amount of inhibitor and a variable amount of estrone), the boiled mixtures were supplemented with 5 μg of aqueous estrone sulfate. The remaining [^3 H]estrone was extracted three times with 0.3 ml of ethyl ether. The residual ether was removed and the volume adjusted to 0.5 ml with methanol. A sample (25 μl) was applied, together with 10 μg of methanolic estrone sulfate marker, to type SG chromatography media (Gelman Instrument Co., Ann Arbor, Mich.), and developed with chloroform/acetone/acetic acid (110:35:6). After drying the sheet, samples were visualized by spraying with methylene blue (25 mg in 100 ml of 0.05 N H2 SO4), punched out with a cork borer, and counted in 10 ml of dioxane counting liquid. A blank employing a boiled enzyme sample was incubated and the recorded counts were substracted from each determination. The total corrected counts, representing steroid sulfate ester, were converted to nanomoles utilizing the specific activity of [^3 H]estrone. An enzyme unit was defined as that quantity of enzyme which synthesized 1 nmol of estrone sulfate in 1 min under chosen conditions. […] When nonsubstrate steroids were used as the inhibitors, the procedure for the enzyme assay was as described earlier [Rozhin et al (1974)], utilizing 5 μg of enzyme, P-Ado-[^35 S]PS, and unlabeled estrone.
Data Processing. The initial velocity analysis was carried out keeping the concentration of P-Ado-PS at saturation level, varying the estrone concentration and keeping the concentration of the inhibitor at a fixed level. Preliminary plots of the data were made in the double reciprocal form (l/v versus l/[S]), and in the form of replots of slopes (and intercepts) versus inhibitor concentration. On the basis of these plots, the proper inhibition pattern was chosen for each experiment and the data points were fitted to the appropriate equation.
Linear competitive inhibition: [formula]
Hyperbolic competitive inhibition: [formula]
Slope-parabolic non-competitive inhibition: [formula]
All calculations were performed using Cleland's Fortran programs (Adv. Enzymol., 29:1-32). The programs gave the values of Km, Vmax, and inhibition constants.
Fractional Inhibition. From kinetic experiments, Ki was calculated as described above under "Data Processing" after making replots of slopes (and/or intercepts) versus inhibitor concentration. […] Substituting v and vi from the corresponding rate equations in the absence of (v=(Vmax [S])/(Km +[S])) and presence of a (competitive) inhibition (Equation 1), the following relationship for FI is obtained: [formula] After substituting [S], Km, and [I] (see above), the equation for the fractional (competitive) inhibition simplifies to: [formula] and the mathematical relationship between FI and Ki of competitive inhibitors is represented by the continuous curve in FIG. 2 in Rozhin et al., J. Biol. Chem., 252, 7214-7220, 1977. The dashed line represents the relationship between FI and the Ki of pure noncompetitive inhibition derived mathematically in an analogous manner and expressed as [formula] Since [I]=22.2 μM, [formula]

SMILES strings stand for the structures. “And” between values parts separate entries of the source, which are not always exact repeats. Identical values can stand only once. Like-named read-outs stand apart in the source and are kept apart here.

The term Ki denotes the equilibrium dissociation constant of an inhibitor or competing ligand from its target. One may read the inhibition as the relative decrease from the control value, in per cent.

Turning to `C[C@]12CC[C@@H]3c4ccc(O)cc4CC[C@H]3[C@@H]1CC[C@@H]2O` [1,3,5(10)Estratriene-3,17β-diol], the “Percent of tritiated E2 sulfurylated, proliferative” value in the data set with human endometrium (Table IV, proliferative days 4-7, 55, 118, 329 mg tissue by row, 2 h, 3×10^-9 M E2) is given as 0%. For the same compound, the “Percent of tritiated E2 oxidized to estrone, proliferative” value in the data set on human endometrium (Table IV, proliferative days 4-7, 55, 118, 329 mg tissue by row, 2 h, 3×10^-9 M E2, listed as E2, 120 min) was 47% and 45%. Moreover, in the data set with human endometrium (Table IV, secretory day 24, 60, 120, 300 mg tissue by row, 2 h, 3×10^-9 M E2, listed as E2, 120 min), the “Percent of tritiated E2 oxidized to estrone (E1 + E1 sulfate), secretory” value was found to be 82%. Further, the “oxidation of labeled E2 to E1 plus E1 sulfate, days 14 and 15” value with human endometrium (same three endometrial curettings, days 14 and 15, listed as E2, 0.003 µM) is 70% and 75% and 93%. Further, the metabolised at 2 h, 0.003 µM is 29% in data set [1] (proliferative days 4-7, 55, 118, 329 mg tissue by row, read-out: Percent of tritiated E2 oxidized to estrone, proliferative) and 78% in data set [1] (secretory day 24, 60, 120, 300 mg tissue by row, read-out: Percent of tritiated E2 oxidized to estrone (E1 + E1 sulfate), secretory). In data set [2] (inhibitors 3 to 6, 12 and 16, from kinetic experiments, read-out: Ki (Table I), determined experimentally), the inhibitory constant (Ki) was 6.1 µM. For the same compound, in data set [2] (pH 8.1, read-out: Fractional Inhibition (Table I)), the inhibition at 22.2 µM was 68%.

Values taken from patent publication US4340602A, “Compositions inhibiting estrogen sulfotransferase activity” (Wayne State University, priority 1978, dated 1982).
